# According to ChEMBL document CHEMBL1828515, “Pantolactams as androgen receptor antagonists for the topical suppression of sebum production” (Bioorg Med Chem Lett, 2011):
# Columns and labels:
# Androgen receptor [1] = target: T1, Androgen receptor (Homo sapiens, UniProt P10275); assay: Binding affinity to human androgen receptor
# T1 sequence (P10275 whole entry): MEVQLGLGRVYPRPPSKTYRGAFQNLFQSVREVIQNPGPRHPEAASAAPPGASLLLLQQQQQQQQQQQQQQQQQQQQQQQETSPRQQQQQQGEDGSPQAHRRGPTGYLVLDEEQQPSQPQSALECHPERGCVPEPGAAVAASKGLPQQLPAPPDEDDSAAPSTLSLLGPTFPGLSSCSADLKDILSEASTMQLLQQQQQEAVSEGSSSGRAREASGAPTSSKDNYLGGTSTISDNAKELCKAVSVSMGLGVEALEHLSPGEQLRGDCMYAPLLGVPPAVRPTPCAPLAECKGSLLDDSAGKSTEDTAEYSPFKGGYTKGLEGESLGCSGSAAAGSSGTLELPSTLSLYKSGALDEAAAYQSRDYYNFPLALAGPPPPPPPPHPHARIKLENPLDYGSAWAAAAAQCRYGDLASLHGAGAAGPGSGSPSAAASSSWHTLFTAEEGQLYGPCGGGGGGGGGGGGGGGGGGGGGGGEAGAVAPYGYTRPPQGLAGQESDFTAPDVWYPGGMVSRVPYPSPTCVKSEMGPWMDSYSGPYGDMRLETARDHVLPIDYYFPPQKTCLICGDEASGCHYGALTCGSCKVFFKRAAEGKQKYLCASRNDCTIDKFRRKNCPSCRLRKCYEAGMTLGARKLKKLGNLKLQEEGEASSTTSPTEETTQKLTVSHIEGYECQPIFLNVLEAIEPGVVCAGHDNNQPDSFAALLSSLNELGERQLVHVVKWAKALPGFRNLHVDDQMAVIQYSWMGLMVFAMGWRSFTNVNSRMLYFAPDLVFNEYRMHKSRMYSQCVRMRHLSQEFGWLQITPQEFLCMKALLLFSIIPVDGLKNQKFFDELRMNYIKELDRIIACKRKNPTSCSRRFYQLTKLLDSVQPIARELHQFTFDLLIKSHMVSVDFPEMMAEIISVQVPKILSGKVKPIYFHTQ
# Androgen receptor [2] = target: T1, Androgen receptor; assay: Antagonist activity at human androgen receptor by cell based assay; format: functional
# Syrian golden hamster [3] = assay: Reduction of cholesterol ester in Syrian golden hamster ear model at 2 % administered topically; format: functional, Mesocricetus auratus; set-up: scale not given: the % may be the effect or the level left
# Syrian golden hamster [4] = assay: Reduction of wax ester in Syrian golden hamster ear model at 2 % administered topically; format: functional, Mesocricetus auratus; set-up: scale not given: the % may be the effect or the level left
# Syrian golden hamster [5] = assay: Reduction of cholesterol ester in Syrian golden hamster ear model at 3 % administered topically; format: functional, Mesocricetus auratus; set-up: scale not given: the % may be the effect or the level left
# Syrian golden hamster [6] = assay: Reduction of wax ester in Syrian golden hamster ear model at 3 % administered topically; format: functional, Mesocricetus auratus; set-up: scale not given: the % may be the effect or the level left
# Syrian golden hamster [7] = assay: Reduction of wax ester in Syrian golden hamster ear model at 1 % administered topically; format: functional, Mesocricetus auratus; set-up: scale not given: the % may be the effect or the level left
# Syrian golden hamster [8] = assay: Reduction of cholesterol ester in Syrian golden hamster ear model at 1 % administered topically; format: functional, Mesocricetus auratus; set-up: scale not given: the % may be the effect or the level left
# Syrian golden hamster [9] = assay: Reduction of cholesterol ester in Syrian golden hamster ear model at 1.5 % administered topically; format: functional, Mesocricetus auratus; set-up: scale not given: the % may be the effect or the level left
# Syrian golden hamster [10] = assay: Reduction of wax ester in Syrian golden hamster ear model at 1.5 % administered topically; format: functional, Mesocricetus auratus; set-up: scale not given: the % may be the effect or the level left
SMILES,IC50 (Androgen receptor [1]) [nM],IC50 (Androgen receptor [2]) [nM],further results
CC(C)CCCN1CC(C)(C)C(Oc2ccc(C#N)c(C(F)(F)F)c2)C1=O (racemic),802,–,–
CC1(C)CN(Cc2cccc(F)c2)C(=O)C1Oc1ccc(C#N)c(C(F)(F)F)c1 (racemic),48,61,–
CC1(C)CN(Cc2ccccc2)C(=O)C1Oc1ccc(C#N)c(C(F)(F)F)c1 (racemic),30,11,–
"CCCCN1CC(C)(C)C(Oc2ccc(C#N)c(C(F)(F)F)c2)C1=O (single isomer, unassigned; (+))",91,10,Activity (Syrian golden hamster [3]): 66%; Activity (Syrian golden hamster [4]): 83%
CCOC(=O)c1ccc(CN2CC(C)(C)C(Oc3ccc(C#N)c(C(F)(F)F)c3)C2=O)o1 (racemic),166,97,–
"CC1(C)CN(Cc2ccccc2F)C(=O)C1Oc1ccc(C#N)c(C(F)(F)F)c1 (single isomer, unassigned; (+))",112,92,Activity (Syrian golden hamster [5]): 70%; Activity (Syrian golden hamster [6]): 86%
CCC(C)N1CC(C)(C)C(Oc2ccc(C#N)c(C(F)(F)F)c2)C1=O (stereo in doubt; 18),9790,–,–
CSCCN1CC(C)(C)C(Oc2ccc(C#N)c(C(F)(F)F)c2)C1=O (racemic),2450,–,–
CCNC(=O)CN1CC(C)(C)C(Oc2ccc(C#N)c(C(F)(F)F)c2)C1=O (racemic),4910,–,–
"CCCN1CC(C)(C)C(Oc2ccc(C#N)c(C(F)(F)F)c2)C1=O (single isomer, unassigned; (+))",225,83,Activity (Syrian golden hamster [7]): 85%; Activity (Syrian golden hamster [8]): 76%
COc1ccc(CN2CC(C)(C)C(Oc3ccc(C#N)c(C(F)(F)F)c3)C2=O)cc1 (racemic),284,–,–
CC1(C)CN(Cc2ccncc2)C(=O)C1Oc1ccc(C#N)c(C(F)(F)F)c1 (racemic),–,> 600,–
CC1(C)CNC(=O)C1Oc1ccc(C#N)c(C(F)(F)F)c1 (racemic),2790,82,–
CC1(C)CN(Cc2cccnc2)C(=O)C1Oc1ccc(C#N)c(C(F)(F)F)c1 (racemic),880,–,–
"CC1(C)CN(Cc2ccccc2)C(=O)C1Oc1ccc(C#N)c(C(F)(F)F)c1 (single isomer, unassigned; (+))",100,38,Activity (Syrian golden hamster [5]): 68%; Activity (Syrian golden hamster [6]): 83%
Cc1nc(CN2CC(C)(C)C(Oc3ccc(C#N)c(C(F)(F)F)c3)C2=O)cs1 (racemic),324,–,–
CC1(C)CN(Cc2ccccc2F)C(=O)C1Oc1ccc(C#N)c(C(F)(F)F)c1 (racemic),174,44,–
COC(=O)CN1CC(C)(C)C(Oc2ccc(C#N)c(C(F)(F)F)c2)C1=O (racemic),494,–,–
CC1(C)COC(=O)[C@H]1Oc1ccc(C#N)c(C(F)(F)F)c1,10000,1000,–
CC1(C)CN(Cc2nc3ccccc3s2)C(=O)C1Oc1ccc(C#N)c(C(F)(F)F)c1 (racemic),–,51,–
CCOC(=O)CN1CC(C)(C)C(Oc2ccc(C#N)c(C(F)(F)F)c2)C1=O (racemic),3520,–,–
CC1(C)COC(=O)[C@@H]1Oc1ccc(C#N)c(C(F)(F)F)c1,70,42,–
CC1(C)CN(Cc2ccccn2)C(=O)C1Oc1ccc(C#N)c(C(F)(F)F)c1 (racemic),767,–,–

SMILES,IC50 (Androgen receptor [1]) [nM],IC50 (Androgen receptor [2]) [nM],further results
CC1(C)COC(=O)C1Oc1ccc(C#N)c(C(F)(F)F)c1 (racemic),113,70,–
CN1CC(C)(C)C(Oc2ccc(C#N)c(C(F)(F)F)c2)C1=O (racemic),1210,–,–
COc1cccc(CN2CC(C)(C)C(Oc3ccc(C#N)c(C(F)(F)F)c3)C2=O)c1 (racemic),–,309,–
COCN1CC(C)(C)C(Oc2ccc(C#N)c(C(F)(F)F)c2)C1=O (racemic),516,–,–
CC1(C)CN(Cc2ccccc2O)C(=O)C1Oc1ccc(C#N)c(C(F)(F)F)c1 (racemic),–,13,–
CC1(C)CN(CCCO)C(=O)C1Oc1ccc(C#N)c(C(F)(F)F)c1 (racemic),523,–,–
CC1(C)CN(Cc2noc(-c3ccccc3)n2)C(=O)C1Oc1ccc(C#N)c(C(F)(F)F)c1 (racemic),84,40,–
CCCCCCN1CC(C)(C)C(Oc2ccc(C#N)c(C(F)(F)F)c2)C1=O (racemic),766,–,–
CC1(C)CN(Cc2nc(-c3ccccc3)no2)C(=O)C1Oc1ccc(C#N)c(C(F)(F)F)c1 (racemic),–,54,–
CC1(C)CN(Cc2ccc(O)cc2)C(=O)C1Oc1ccc(C#N)c(C(F)(F)F)c1 (racemic),–,32,–
CC1(C)CN(Cc2cccc(O)c2)C(=O)C1Oc1ccc(C#N)c(C(F)(F)F)c1 (racemic),–,> 600,–
CCCC(C)N1CC(C)(C)C(Oc2ccc(C#N)c(C(F)(F)F)c2)C1=O (racemic),200,6,–
CC1(C)C(=O)N(c2ccc(C#N)c(C(F)(F)F)c2)C(=O)N1CCCCO [RU-58841],–,–,Activity (Syrian golden hamster [7]): 95%
CSc1ccc(CN2CC(C)(C)C(Oc3ccc(C#N)c(C(F)(F)F)c3)C2=O)cc1 (stereo in doubt; 38),187,51,–
"CCC(C)N1CC(C)(C)C(Oc2ccc(C#N)c(C(F)(F)F)c2)C1=O (single isomer, unassigned; (+))",132,32,–
COC(=O)c1csc(CN2CC(C)(C)C(Oc3ccc(C#N)c(C(F)(F)F)c3)C2=O)n1 (racemic),–,> 900,–
COCCN1CC(C)(C)C(Oc2ccc(C#N)c(C(F)(F)F)c2)C1=O (racemic),1770,–,–
CCCCN1CC(C)(C)C(Oc2ccc(C#N)c(C(F)(F)F)c2)C1=O (racemic),119,16,–
CCCN1CC(C)(C)C(Oc2ccc(C#N)c(C(F)(F)F)c2)C1=O (racemic),–,24,–
"CSc1ccc(CN2CC(C)(C)C(Oc3ccc(C#N)c(C(F)(F)F)c3)C2=O)cc1 (single isomer, unassigned; (+))",316,28,Activity (Syrian golden hamster [9]): 75%; Activity (Syrian golden hamster [10]): 89%
CC1(C)CN(Cc2ccc(F)cc2)C(=O)C1Oc1ccc(C#N)c(C(F)(F)F)c1 (racemic),–,199,–
CCC(CC)CN1CC(C)(C)C(Oc2ccc(C#N)c(C(F)(F)F)c2)C1=O (racemic),444,–,–
